Consider twelve molecules from patent publication US7414061B2, “Aryl-isoxazol-4-yl-imidazole derivatives” (Hoffmann-La Roche Inc., priority 2005, dated 2008).

For this test, the target named is T1, GABA A receptor α5β3γ2 (hα5) (Homo sapiens, UniProt P18507+P31644).
T1 construct: expressed in transfected cells; host or cells: HEK293 (transiently transfected), membrane preparation
The test is described as follows: [3H]flumazenil competition binding assay, human GABA A α5β3γ2. The conditions noted are these: displacement of [3H]flumazenil (0.5 nM) from HEK293 cell membranes expressing α5β3γ2; means of two determinations; read-out: Ki[nM] hα5. The protocol:
The affinity of compounds at GABA A receptor subtypes was measured by competition for [3H]flumazenil (85 Ci/mmol; Roche) binding to HEK293 cells expressing rat (stably transfected) or human (transiently transfected) receptors of composition α1β3γ2, α2β3γ2, α3β3γ2 and α5β3γ2.
Cell pellets were suspended in Krebs-tris buffer (4.8 mM KCl, 1.2 mM CaCl2, 1.2 mM MgCl2, 120 mM NaCl, 15 mM Tris; pH 7.5; binding assay buffer), homogenized by polytron for ca. 20 sec on ice and centrifuged for 60 min at 4° C. (50000 g; Sorvall, rotor: SM24=20000 rpm). The cell pellets were resuspended in Krebs-tris buffer and homogenized by polytron for ca. 15 sec on ice. Protein was measured (Bradford method, Bio-Rad) and aliquots of 1 mL were prepared and stored at −80° C.
Radioligand binding assays were carried out in a volume of […] (96-well plates) which contained […] of cell membranes, [3H]flumazenil at a concentration of 1 nM for α1, α2, α3 subunits and 0.5 nM for α5 subunits and the test compound in the range of […]. Nonspecific binding was defined by 10^−5 M diazepam and typically represented less than 5% of the total binding. Assays were incubated to equilibrium for 1 hour at 4° C. and harvested onto GF/C uni-filters (Packard) by filtration using a Packard harvester and washing with ice-cold wash buffer (50 mM Tris; pH 7.5). After drying, filter-retained radioactivity was detected by liquid scintillation counting. Ki values were calculated using Excel-Fit (Microsoft) and are the means of two determinations.
As to “5-Ethyl-4-[1-(4-nitro-phenyl)-1H-imidazol-4-yl]-3-phenyl-isoxazole [Example 31]”, the inhibitory constant (Ki) turned out to be 5 nM.
Take `Cc1onc(-c2ccccc2)c1-c1cn(-c2ccc([N+](=O)[O-])cc2)c(COCc2ccncc2)n1` [Example 165, 4-[4-(5-Methyl-3-phenyl-isoxazol-4-yl)-1-(4-nitro-phenyl)-1H-imidazol-2-ylmethoxymethyl]-pyridine]: the Ki was determined as 18.2 nM.
To `Cc1onc(-c2ccccc2)c1-c1cn(-c2ccc(C(=O)NCC3CC3)cc2)cn1` [Example 71, N-Cyclopropylmethyl-4-[4-(5-methyl-3-phenyl-isoxazol-4-yl)-imidazol-1-yl]-benzamide] belongs 16.7 nM.
With `Cc1cccc(-n2cnc(-c3c(-c4ccc(F)cc4)noc3C)c2)c1` [Example 118, 3-(4-Fluoro-phenyl)-5-methyl-4-(1-m-tolyl-1H-imidazol-4-yl)-isoxazole] the figure was 29 nM.
To `CCOc1ccccc1-n1cnc(-c2c(-c3ccccc3)noc2C)c1` [Example 20, 4-[1-(2-Ethoxy-phenyl)-1H-imidazol-4-yl]-5-methyl-3-phenyl-isoxazole] belongs 32.4 nM.
In the case of `Cc1onc(-c2ccc(F)cc2)c1-c1cn(-c2cccc(C#N)c2)cn1` [Example 122, 3-{4-[3-(4-Fluoro-phenyl)-5-methyl-isoxazol-4-yl]-imidazol-1-yl}-benzonitrile], the Ki was 25.6 nM.
Take `Cc1ccc(COCc2nc(-c3c(-c4ccccc4)noc3C)cn2-c2ccc([N+](=O)[O-])cc2)cc1` [Example 153, 5-Methyl-4-[2-(4-methyl-benzyloxymethyl)-1-(4-nitro-phenyl)-1H-imidazol-4-yl]-3-phenyl-isoxazole]: the Ki was 17.3 nM.
As for `Cc1onc(-c2ccccc2)c1-c1cn(-c2ccccc2)cn1` [Example 2, 5-Methyl-3-phenyl-4-(1-phenyl-1H-imidazol-4-yl)-isoxazole], the Ki is 21.7 nM.
On to `Cc1onc(-c2ccccc2F)c1-c1cn(-c2ncccn2)cn1` [Example 39, 2-{4-[3-(2-Fluoro-phenyl)-5-methyl-isoxazol-4-yl]-imidazol-1-yl}-pyrimidine], for which the Ki came to 18.3 nM.
Regarding `Cc1onc(-c2ccccc2)c1-c1cn(-c2ccc(C(=O)NCCCN3CCOCC3)cc2)cn1` [Example 73, 4-[4-(5-Methyl-3-phenyl-isoxazol-4-yl)-imidazol-1-yl]-N-(3-morpholin-4-yl-propyl)-benzamide], the Ki was determined as 14.6 nM.
To `CCc1onc(-c2ccc(F)cc2)c1-c1cn(-c2ccc([N+](=O)[O-])cc2)cn1` [Example 134, 5-Ethyl-3-(4-fluoro-phenyl)-4-[1-(4-nitro-phenyl)-1H-imidazol-4-yl]-isoxazole] belongs 12.7 nM; to `Cc1onc(-c2cccc(F)c2)c1-c1cn(-c2ccc(C(=O)NCc3ccccn3)cc2)cn1` [Example 106, 4-{4-[3-(3-Fluoro-phenyl)-5-methyl-isoxazol-4-yl]-imidazol-1-yl}-N-pyridin-2-ylmethyl-benzamide], 32.1 nM.
